Data from PMC10765884, “MC180295 is a highly potent and selective CDK9 inhibitor with preclinical in vitro and in vivo efficacy in cancer” (Clinical Epigenetics, 2024).
In brackets after ≈: the same amount, converted by molar mass. Where two headings read alike, the source gives them in different places.

Experiments:
SW48 cells = assay: SW48 colon cancer xenograft in NSG mice; format: in vivo; settings: for tumor growth / tumor size / survival: SW48 s.c. in NSG mice, 20 mg/kg i.p. q.o.d.; for tumor growth / tumor size: vs vehicle
Protocol: Fig. 3 Antitumor, survival, and metabolic effects of MC180295 and its enantiomers, MC180379 and MC180380. A Antitumor effects of MC180295, MC180379, and MC180380. NSG mice were inoculated (s.c.) with 2 × 10^6 SW48 cells. Eleven days later, when tumors were palpable, 20 mg/kg MC180295, MC180379, MC180380, or vehicle were administered (i.p.) every other day (q.o.d.). Tumor sizes were measured using a caliper. […] . C Antitumor effects of MC180379 and MC180380. NSG mice were inoculated (s.c.) with 1 × 10^6 HT29 cells. Twelve days later, when tumors were palpable, 20 mg/kg MC180379, MC180380, or vehicle were administered (i.p.) q.o.d. Tumor sizes were measured using a caliper. D HT29-xenografted mouse survival following (i.p.) q.o.d. dosing with 20 mg/kg MC180379 or MC180380. E NSG mice were inoculated (i.p.) with 5 × 10^5 MV4-11-luc cells. Four days later, when substantial tumor burden was evident by bioluminescence imaging, MC180379, MC180380, or vehicle were administered (i.p.) q.o.d at 20 mg/kg. Luciferase expression was quantified and calculated. F Mouse survival in days. […] G In vitro liver microsome stability and rat hepatocyte/Sprague–Dawley stability assay comparing MC180379 to MC180380. The dog breed was beagle and the mouse microsome strain was CD-1. All sexes (including the hepatocytes) were male except the human microsomes which were mixed gender. Significances were calculated using log-rank (Mantel-Cox) or Student’s t tests.
Fig. 4 Antitumor and survival-extending properties of a hypomethylating agent (DAC) combined with MC180295. A Antitumor effects of MC180295 and MC180295 + DAC. NSG mice were inoculated (s.c.) with 2 × 10^6 SW48 cells. Eleven days later, when tumors were palpable, 20 mg/kg MC180295 or vehicle were administered (i.p.) q.o.d. 0.5 mg/kg DAC was administered (i.p.) daily. Tumor sizes were measured using a caliper. B Mouse survival in days. 20 mg/kg MC180295 was administered (i.p.) q.o.d. 0.5 mg/kg DAC was administered (i.p.) daily. C NSG mice were inoculated (i.p.) with 5 × 10^5 MV4-11-luc cells. Four days later, when substantial tumor burden was evident by bioluminescence imaging, MC180295 (20 mg/kg) or vehicle were administered (i.p.) every other day. 0.5 mg/kg DAC was administered (i.p.) daily. Luciferase expression was quantified and calculated. […] E Antitumor effects of MC180380 and MC180380 + DAC. NSG mice were inoculated (s.c.) with 2 × 10^6 SW48 cells. Eleven days later, when tumors were palpable, 10 mg/kg MC180380, 20 mg/kg MC180380, or vehicle was administered (i.p.) q.o.d. 0.5 mg/kg DAC was administered (i.p.) daily. Mouse survival shown in days. Significances were calculated using log-rank (Mantel-Cox) or Student's t tests. Data are shown as means ± SEMs. ***p < 0.001
For the s.c. SW48 model, 2 × 10^6 cells were injected into the flanks of randomly assigned, gender-matched 8–10-week-old NSG mice.

[1] = Liver microsome stability assay; format: in vitro ADME; settings: pooled liver microsomes, pH 7.4, Cynomologous Monkey liver microsomes; for half-life at 1 µM: cynomolgus monkey; for remaining at 1 h, 1 µM: without NADPH, 60 min, read-out: Stability minus NADPH % Remaining @ 60 min
[2] = Liver microsome stability assay; format: in vitro ADME, human; settings: both sexes, pooled liver microsomes, pH 7.4; for half-life at 1 µM: Human (mixed gender) liver microsomes; for remaining at 1 h, 1 µM: Human liver microsomes, without NADPH, 60 min, read-out: Stability minus NADPH % Remaining @ 60 min
Protocol: Assays were conducted in 96-deep well polypropylene plates. In duplicate, test compounds (1 µM) were incubated in 0.5 mL of 100 mM potassium phosphate buffer (pH 7.4), with 0.5 mg/ml pooled liver microsomes (Life Technologies: CD-1 male mice # MSMCPL; SD male rat # RTMCPL; mixed gender human # HMMCPL. […] At five time points, 75 µL of reaction mixtures were transferred on ice to a 96-shallow well stop plate containing 225 µL acetonitrile with 0.1 µM propafenone. […] Standard curves for test compounds were generated using 5 concentrations (in duplicate) that were processed as above but with no incubation time. Stop plates were centrifuged at 2000xg for 10 min in a Sorvall ST 16 centrifuge, and 170 µL of the supernatants transferred to a Waters® Aquity UPLC (Ultra Performance Liquid Chromatography) 700 µL 96-well sample plate with cap mat. A Waters® Aquity UPLC BEH C18 1.7 µM, 2.1 × 50 mm column, at 40 °C, was used to fractionate 5 µL samples, using a 3 min linear 5 to 95% acetonitrile gradient in 0.1% formic acid with a 0.75 mL/min flow rate. In tandem with UPLC, compound concentrations were analyzed using a Waters® TQ MS mass spectrometer in electrospray-positive mode (source temperature 150 °C; desolvation temperature 450 °C; desolvation flow rate of 900 L/hr). Cone voltages, collision energies, and quantitation were optimized and determined using Waters® QuanOptimize software, with propafenone as an internal standard. MC180379:CV 34; CE 34; mrm 359.15 > 114.91; MC180390 CV 34; CE 28; mrm 359.15 > 114.92. GraphPad® Prism v 5.04 was used for nonlinear fitting of time course data to generate t1/2 and CLint (intrinsic clearance) values.

Kinetic solubility = format: physicochemical; settings: Dulbecco's PBS, aqueous buffer, kinetic from dmso stock; PBS (pH 7.4), Free Base
Protocol: The kinetic solubility of test compounds was determined by adapting Millipore® application note protocol AN1730EN00. Liquid handling was performed using PerkinElmer® Verispan and MDT workstations. In triplicate, 4 µL of 10 mM test compounds in DMSO were added to 196 µL of buffer (Dulbecco’s’ PBS or water). The 200 µM compound solutions, in 2% DMSO, were incubated with gentle shaking for 90 min at RT before vacuum filtration in 96-well polypropylene collection plates, using a Millipore® filtration manifold. 160 µL of filtrate was transferred to a 96-well UV Star analysis plate (Greiner Bio-One® plate # 655,801) containing 40 µL acetonitrile. Standard curves were generated by adding 4 µL of 50 × of five concentrations of test compounds, in DMSO, to 40 µL acetonitrile in UV Star plates, followed by 156 µL buffer. Absorbances at […] were measured using a Molecular Devices® Spectramax Plus microplate reader with Softmax Pro v. 5.4.5 software. Absorbance readings were summed to generate the signal. Test sample concentrations were interpolated from linear standard curves using GraphPad® Prism v 5.04.

Q: What does the source list for `Nc1nc(N[C@H]2C[C@@H]3CC[C@H]2C3)sc1C(=O)c1ccccc1[N+](=O)[O-]` (relative stereo) [MC180295]?
A: tumor growth / tumor size (SW48 cells; 20 mg/kg): significantly reduce tumor size; tumor growth / tumor size (SW48 cells; listed as MC190295, 20 mg/kg): no statistical difference in tumor size; survival (SW48 cells; 20 mg/kg): prolong overall survival

Q: For `Nc1nc(N[C@@H]2C[C@H]3CC[C@@H]2C3)sc1C(=O)c1ccccc1[N+](=O)[O-]` [MC180379], which half-life at 1 µM [1] is on record?
A: Its half-life at 1 µM is 0.8 min.

Q: What about the remaining at 1 h, 1 µM [1] of the same compound?
A: Its remaining at 1 h, 1 µM is 73%.

Q: What about the half-life at 1 µM [2] of the same compound?
A: Its half-life at 1 µM is 12.2 min.

Q: And the remaining at 1 h, 1 µM [2]?
A: Its remaining at 1 h, 1 µM is 86%.

Q: What about the survival (SW48 cells) of the same compound?
A: Its survival is “no survival difference”.

Q: And the solubility at 90 min (Kinetic solubility)?
A: Its solubility at 90 min is 53.5 µM (≈ 19.2 µg/mL).

Q: For `Nc1nc(N[C@H]2C[C@@H]3CC[C@H]2C3)sc1C(=O)c1ccccc1[N+](=O)[O-]` [MC180380], which half-life at 1 µM [1] is on record?
A: Its half-life at 1 µM is 1.5 min.

Q: And the remaining at 1 h, 1 µM [1]?
A: Its remaining at 1 h, 1 µM is 51%.

Q: What about the half-life at 1 µM [2] of the same compound?
A: The half-life at 1 µM was 21.1 min.

Q: And the remaining at 1 h, 1 µM [2]?
A: The remaining at 1 h, 1 µM was 88%.

Q: And the “overall survival, dose comparison” value (SW48 cells; SW48 in NSG mice, 10 or 20 mg/kg MC180380 i.p. q.o.d.)?
A: The value was 20 mg/kg led to better overall survival than 10 mg/kg.

Q: What about the survival (SW48 cells; 20 mg/kg) of the same compound?
A: The survival was “no survival difference”.

Q: What about the solubility at 90 min (Kinetic solubility) of the same compound?
A: The solubility at 90 min was 52.6 µM (≈ 18.9 µg/mL).
